From US20230127839A1, “COMPOUNDS AND COMPOSITIONS FOR TREATING CONDITIONS ASSOCIATED WITH STING ACTIVITY” (IFM Due, Inc., priority 2019, published 2023)

Target: T1, hSTING (Homo sapiens, UniProt Q86WV6, G230A/H232R/R293Q/R71H)
T1 construct: host or cells: THP1-Dual KO-IFNAR2 cells
Test: STING reporter assay (luciferase) in THP1-Dual KO-IFNAR2 cells stimulated with 2'3'cGAMP
Assay type: cell-based
Details: 2'3'cGAMP 15 μM, 24 h, luciferase reporter activity
Experimental: STING pathway activation by the compounds described herein is measured using THP1-Dual™ cells (KO-IFNAR2).
THP1-Dual™ KO-IFNAR2 Cells (obtained from invivogen) are maintained in RPMI, 10% FCS, 5 ml P/S, 2 mM L-glut, 10 mM Hepes, and 1 mM sodium pyruvate.
Compounds are spotted in empty 384 well tissue culture plates (Greiner 781182) by Echo for a final concentration of 0.0017-100 μM. Cells are plated into the TC plates at 40 μL per well, 2×10E6 cells/mL. For activation with STING ligand, 2′3′cGAMP (MW 718.38, obtained from Invivogen), is prepared in Optimem media.
The following solutions are prepared for each 1×384 plate: • Solution A: 2 mL Optimem with one of the following stimuli: • 60 uL of 10 mM 2′3′cGAMP->150 μM stock • Solution B: 2 mL Optimem with 60 μL Lipofectamine 2000->Incubate 5 min at RT
2 mL of solution A and 2 ml Solution B is mixed and incubated for 20 min at room temperature (RT). 20 uL of transfection solution (A+B) is added on top of the plated cells, with a final 2′3′cGAMP concentration of 15 μM. The plates are then centrifuged immediately at 340 g for 1 minute, after which they are incubated at 37° C., 5% CO2, >98% humidity for 24 h. Luciferase reporter activity is then measured. EC50 values are calculated by using standard methods known in the art.
Luciferase reporter assay: 10 μL of supernatant from the assay is transferred to white 384-plate with flat bottom and squared wells. One pouch of QUANTI-Luc™ Plus us dissolved in 25 mL of water. 100 μL of QLC Stabilizer per 25 mL of QUANTI-Luc™ Plus solution is added. 50 μL of QUANTI-Luc™ Plus/QLC solution per well is then added. Luminescence is measured on a Platereader (e.g., Spectramax I3X (Molecular Devices GF3637001)).
Luciferase reporter activity is then measured. EC50 values are calculated by using standard methods known in the art.

T1 sequence (Q86WV6 whole entry R71H/G230A/H232R/R293Q): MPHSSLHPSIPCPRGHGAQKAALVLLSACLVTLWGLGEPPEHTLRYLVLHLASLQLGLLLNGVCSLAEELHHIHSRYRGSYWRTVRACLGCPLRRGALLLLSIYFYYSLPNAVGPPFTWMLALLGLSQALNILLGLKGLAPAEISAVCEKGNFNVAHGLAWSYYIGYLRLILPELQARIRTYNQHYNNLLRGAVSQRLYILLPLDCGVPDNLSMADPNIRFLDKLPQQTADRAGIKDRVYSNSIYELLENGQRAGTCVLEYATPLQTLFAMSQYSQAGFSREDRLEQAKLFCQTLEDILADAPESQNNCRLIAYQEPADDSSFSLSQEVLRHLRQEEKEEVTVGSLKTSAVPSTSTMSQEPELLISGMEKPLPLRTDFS

SMILES	EC50
Cc1cc(NC(=O)Nc2c[nH]c3ccc(CCO)cc23)cnc1N1CCC(F)(F)CC1 [Compound 164, 1-(6-(4,4-difluoropiperidin-1-yl)-5-methylpyridin-3-yl)-3-(5-(2-hydroxyethyl)-1H-indol-3-yl)urea]	1000 to 5000 nM
COC1(C)CN(c2ncc(NC(=O)Nc3c[nH]c4cc(F)c(F)cc34)cc2Cl)C1 [Compound 187, 1-(5-chloro-6-(3-methoxy-3-methylazetidin-1-yl)pyridin-3-yl)-3-(5,6-difluoro-1H-indol-3-yl)urea]	200 to 1000 nM
O=C(Nc1cnn(CC2CCC(F)(F)CC2)c1)Nc1c[nH]c2ccc(Cl)cc12 [Compound 222, 1-(5-chloro-1H-indol-3-yl)-3-(1-((4,4-difluorocyclohexyl)methyl)-1H-pyrazo1-4-yl)urea]	200 to 1000 nM
O=C(Nc1cn(C2CCC(F)(F)CC2)cn1)Nc1c[nH]c2ccc(Cl)cc12 [Compound 212, 3-(5-chloro-1H-indol-3-yl)-1-[1-(4,4-difluorocyclohexyl)imidazol-4-yl]urea]	1000 to 5000 nM
O=C(Nc1cnc(N2CCC3(CCCCO3)CC2)c(F)c1)Nc1c[nH]c2cc(F)ccc12 [Compound 145, 1-(6-fluoro-1H-indol-3-yl)-3-(5-fluoro-6-(1-oxa-9-azaspiro[5.5]undecan-9-yl)pyridin-3-yl)urea]	200 to 1000 nM
N#Cc1cc(NC(=O)Nc2c[nH]c3cc(F)c(F)cc23)cnc1C1CC(F)(F)C1 [Compound 125, 1-(5-cyano-6-(3,3-difluorocyclobutyl)pyridin-3-yl)-3-(5,6-difluoro-1H-indol-3-yl)urea]	200 to 1000 nM
O=C(Nc1ccc(C2CCC(F)(F)CC2)nc1)Nc1c[nH]c2ccccc12 [Compound 190, 1-(6-(4,4-difluorocyclohexyl)pyridin-3-yl)-3-(1H-indol-3-yl)urea]	200 to 1000 nM
O=C(Nc1cncc(C2CCC(F)(F)CC2)c1)Nc1c[nH]c2ccc(Cl)cc12 [Compound 256, 1-(5-chloro-1H-indol-3-yl)-3-(5-(4,4-difluorocyclohexyl)pyridin-3-yl)urea]	200 to 1000 nM
O=C(Nc1cnc(N2CCC(F)(F)CC2)cn1)Nc1c[nH]c2cc(F)c(F)cc12 [Compound 194, 1-(5,6-difluoro-1H-indol-3-yl)-3-(5-(4,4-difluoropiperidin-1-yl)pyrazin-2-yl)urea]	200 to 1000 nM
COCCN1CCN(c2ncc(NC(=O)Nc3c[nH]c4ccc(Cl)cc34)cc2Cl)CC1 [Compound 135, 1-(5-chloro-1H-indol-3-yl)-3-(5-chloro-6-(4-(2-methoxyethyl)piperazin-1-yl)pyridin-3-yl)urea]	200 to 1000 nM
CC(CC1CCC1)n1cc(NC(=O)Nc2c[nH]c3ccc(Cl)cc23)cn1 (stereo not drawn) [Compound 217, 1-(5-chloro-1H-indol-3-yl)-3-(1-(1-cyclobutylpropan-2-yl)-1H-pyrazol-4-yl)urea]	200 to 1000 nM
O=C(Nc1cnn(C2CCC(F)(F)CC2)c1)Nc1c[nH]c2cc(F)c(Cl)cc12 [Compound 230, 1-(5-chloro-6-fluoro-1H-indol-3-yl)-3-(1-(4,4-difluorocyclohexyl)-1H-pyrazol-4-yl)urea]	200 to 1000 nM
C[C@@H]1CN(c2ncc(NC(=O)Nc3c[nH]c4ccc(Cl)cc34)cc2Cl)C[C@@H](C)N1 [Compound 291, 1-(5-chloro-1H-indol-3-yl)-3-(5-chloro-6-((3R,5R)-3,5-dimethylpiperazin-1-yl)pyridin-3-yl)urea]	1000 to 5000 nM
O=C(Nc1cnc(N2CCC(F)(F)CC2)c(Cl)c1)Nc1c[nH]c2c(Br)cc(Cl)cc12 [Compound 232, 1-(7-bromo-5-chloro-1H-indol-3-yl)-3-(5-chloro-6-(4,4-difluoropiperidin-1-yl)pyridin-3-yl)urea]	200 to 1000 nM

Further lines, results first:

EC50	SMILES
200 to 1000 nM	O=C(Nc1cnc(N2CCC(F)(F)CC2)nc1)Nc1c[nH]c2cc(F)c(F)cc12 [Compound 179, 1-(5,6-difluoro-1H-indol-3-yl)-3-(2-(4,4-difluoropiperidin-1-yl)pyrimidin-5-yl)urea]
40 to 200 nM	O=C(Nc1cnn(C2CC3(C2)CC(F)(F)C3)c1)Nc1c[nH]c2ccc(Cl)cc12 [Compound 234, 1-(5-chloro-1H-indol-3-yl)-3-(1-(6,6-difluorospiro[3.3]heptan-2-yl)-1H-pyrazo1-4-yl)urea]
40 to 200 nM	O=C(Nc1ccc(C2CCC2)cc1)Nc1c[nH]c2ccc(Cl)cc12 [Compound 300, 1-(5-chloro-1H-indol-3-yl)-3-(4-cyclobutylphenyl)urea]
40 to 200 nM	N#Cc1ccc2[nH]cc(NC(=O)Nc3cnc(N4CCC(F)(F)CC4)c(Cl)c3)c2c1 [Compound 181, 1-(5-chloro-6-(4,4-difluoropiperidin-1-yl)pyridin-3-yl)-3-(5-cyano-1H-indol-3-yl)urea]
40 to 200 nM	N#Cc1cc(NC(=O)Nc2c[nH]c3cc(F)c(F)cc23)cnc1N1CCC(F)(F)CC1 [Compound 163, 1-(5-cyano-6-(4,4-difluoropiperidin-1-yl)pyridin-3-yl)-3-(5,6-difluoro-1H-indol-3-yl)urea]
40 to 200 nM	CC1(C)OCC(c2ncc(NC(=O)Nc3c[nH]c4ccc(Cl)cc34)cc2Cl)CO1 [Compound 264, 1-(5-chloro-1H-indol-3-yl)-3-(5-chloro-6-(2,2-dimethyl-1,3-dioxan-5-yl)pyridin-3-yl)urea]
40 to 200 nM	O=C(Nc1cnc(C2CCN(CC(F)(F)F)C2)c(Cl)c1)Nc1c[nH]c2ccc(Cl)cc12 (stereo not drawn) [Compound 238, 1-(5-chloro-1H-indol-3-yl)-3-(5-chloro-6-(1-(2,2,2-trifluoroethyl)pyrrolidin-3-yl)pyridin-3-yl)urea]
40 to 200 nM	Cc1cc(NC(=O)Nc2c[nH]c3ccc(Cl)cc23)cnc1C1CCN(CC(F)(F)F)CC1 [Compound 133, 1-(5-chloro-1H-indol-3-yl)-3-(5-methyl-6-(1-(2,2,2-trifluoroethyl)piperidin-4-yl)pyridin-3-yl)urea]
40 to 200 nM	O=C(Nc1cnc(C2CCC(F)(F)CC2)c(Cl)c1)Nc1c[nH]c2ccccc12 [Compound 248, 1-(5-chloro-6-(4,4-difluorocyclohexyl)pyridin-3-yl)-3-(1H-indol-3-yl)urea]
40 to 200 nM	O=C(Nc1ccc(C2CCC(F)(F)CC2)nc1)Nc1c[nH]c2ccc(Br)cc12 [Compound 203, 1-(5-bromo-1H-indol-3-yl)-3-(6-(4,4-difluorocyclohexyl)pyridin-3-yl)urea]
40 to 200 nM	O=C(Nc1cnc(Cl)c(C2CCC(F)(F)CC2)c1)Nc1c[nH]c2ccc(Cl)cc12 [Compound 231, 1-(5-chloro-1H-indol-3-yl)-3-(6-chloro-5-(4,4-difluorocyclohexyl)pyridin-3-yl)urea]
40 to 200 nM	O=C(Nc1cc(Cl)c(C2CCC(F)(F)CC2)cn1)Nc1c[nH]c2cc(F)c(F)cc12 [Compound 154, 1-(4-chloro-5-(4,4-difluorocyclohexyl)pyridin-2-yl)-3-(5,6-difluoro-1H-indol-3-yl)urea]
40 to 200 nM	O=C(Nc1cnc(C2CCN(CC(F)(F)F)CC2)c(F)c1)Nc1c[nH]c2ccc(F)cc12 [Compound 270, 1-(5-fluoro-1H-indol-3-yl)-3-(5-fluoro-6-(1-(2,2,2-trifluoroethyl)piperidin-4-yl)pyridin-3-yl)urea]
40 to 200 nM	O=C(Nc1cnc(N2CCC(F)(F)CC2)c(F)c1)Nc1c[nH]c2ccc(F)cc12 [Compound 274, 1-(6-(4,4-difluoropiperidin-1-yl)-5-fluoropyridin-3-yl)-3-(5-fluoro-1H-indol-3-yl)urea]
40 to 200 nM	Cc1ccc2[nH]cc(NC(=O)Nc3cnc(N4CCC(F)(F)CC4)c(C)c3)c2c1 [Compound 197, 1-(6-(4,4-difluoropiperidin-1-yl)-5-methylpyridin-3-yl)-3-(5-methyl-1H-indol-3-yl)urea]
40 to 200 nM	O=C(Nc1cnc(N2CCC3(CCCCO3)CC2)c(Cl)c1)Nc1c[nH]c2ccccc12 [Compound 281, 1-(5-chloro-6-(1-oxa-9-azaspiro[5.5]undecan-9-yl)pyridin-3-yl)-3-(1H-indol-3-yl)urea]
40 to 200 nM	O=C(Nc1cnc(N2CCC3(CC2)CC3)c(F)c1)Nc1c[nH]c2ccc(Cl)cc12 [Compound 240, 1-(5-chloro-1H-indol-3-yl)-3-(5-fluoro-6-(6-azaspiro[2.5]octan-6-yl)pyridin-3-yl)urea]
40 to 200 nM	C[C@@H]1CN(c2ncc(NC(=O)Nc3c[nH]c4ccc(Cl)cc34)cc2Cl)C[C@H](C)O1 [Compound 293, 1-(5-chloro-1H-indol-3-yl)-3-(5-chloro-6-((2S,6R)-2,6-dimethylmorpholino)pyridin-3-yl)urea]
40 to 200 nM	O=C(Nc1ccc(C2CN(CC(F)(F)F)C2)c(Cl)c1)Nc1c[nH]c2ccc(Cl)cc12 [Compound 218, 1-(5-chloro-1H-indol-3-yl)-3-(3-chloro-4-(1-(2,2,2-trifluoroethyl)azetidin-3-yl)phenyl)urea]
